System: Mouse lymphoma TK cells
Experiment: TK suspension cell assay, treatment with dilutions of BAK and ZDBC
Assay type: cell-based
Details: 72±2 hours; for dose dependence of the decrease in cell growth: serial dilutions, 5% or 10% FBS
Method: For each test material, data were collected and the mean and SD were calculated using Excel. The IC50 was calculated using SigmaPlot. Determination of cytotoxicity and test acceptance criteria followed those described in JMHLW and ISO 10993-5: The relative colony-forming rate/relative growth rate of positive control (reference material B) should be equal or less than 10%, and negative control (Wako disk) should be equal or greater than 80%.
Relative cell growth rate (%)=[100×(Test cell concentration at time 72 hours−mean of blank cell concentration at time 0)÷(mean of blank cell concentration at time 72 hours−mean of blank cell concentration at time 0)]. The results are expressed as the mean±standard deviation (SD) from three independent studies and each study has six replicates for each lens.
Phosphate buffer (Cat. #SH30028.02, HyClone, Logan, Utah) was used for dilutions of BAK (1.25, 2.5, 5, 10, 25, and 50 parts per million) (Cat. #B1068, Spectrum Chemical, New Brunswick, N.J.). A total of 900 μL of 2.2×10^4 cells/mL TK cells in assay medium (RPMIFBS10 or RPMIFBS05) were seeded in a 24-well plate and then treated with different dilutions of BAK (100 μL) to achieve final concentrations of 0.125, 0.25, 0.5, 1.0, 2.5, and 5 ppm. Phosphate buffer (100 μL)-treated cells served as a blank control, reference material B (diameter (ϕ): 14 mm) as a positive control, and Wako tissue culture plastic disk served a negative control. After 72±2 hours incubation, 600 μL cells were mixed and transferred into the counter vial. The relative cell growth rate was determined and calculated as described above. The results are expressed as the mean±SD based on three replicates.
DMSO was used to dissolve ZDBC powder (Cat. #Z1031, Spectrum Chemical, New Brunswick, N.J.) to make […], 0.1, 0.2, 0.4, 0.8, and 2 mg/mL dilutions. Next, 995 μL of 2.0×10^4 cells/mL TK cells in assay medium (either RPMIFBS10 or RPMIFBS05) were seeded in a 24-well plate and treated with 5 μL of different ZDBC dilutions to achieve final concentrations of 0.25, 0.5, 1, 2, 4, and 10 μg/mL. DMSO (5 μL)-treated cells served as a blank control, reference material B (diameter (ϕ): 14 mm) as a positive control, and Wako tissue culture plastic disk served a negative control. After 72±2 hours incubation, 600 μL cells were mixed and transferred into the counter vial. The relative cell growth rate was determined and calculated as described above. The results are expressed as the mean±SD based on three replicates.

Row | IC50 (relative cell growth rate) (5% FBS) [ppm] | IC50 (relative cell growth rate) (10% FBS) [ppm] | Substance | cytotoxicity (at 0.25 and 0.125 ppm) | cell growth inhibition as compared to the blank control (at 5, 2.5, 1, and 0.5 ppm) | dose dependence of the decrease in cell growth | IC50 (relative cell growth rate) (5% FBS medium) [µg/mL] | IC50 (relative cell growth rate) (10% FBS medium) [µg/mL]
1 | 0.55 | 0.59 | benzalkonium chloride [BAK] | not cytotoxic | significant cell growth inhibition | dose-dependent decrease in cell growth | – | –
2 | – | – | zinc dibutyldithiocarbamate [ZDBC] | – | – | dose-dependent decrease in cell growth | 2.0 | 4.5
